SMILES strings stand for the structures. Where a SMILES comes first, the peptide text is derived from it. Side-chain parts run from the residue outwards. [ ]: non-standard residue; d: D form. The star is where a group is joined. Shikimoyl = O=C(C1=C[C@@H](O)[C@@H](O)[C@H](O)C1)*; dPhe(4-Cl) = N[C@H](Cc1ccc(Cl)cc1)C(=O)O; d2Nal = N[C@H](Cc1ccc2ccccc2c1)C(=O)O; Lys(iPr) = CC(C)NCCCC[C@H](N)C(=O)O; NMeY = CN[C@@H](Cc1ccc(O)cc1)C(=O)O; Thiophene2carbonyl = O=C(c1cccs1)*; hArg = N=C(N)NCCCC[C@H](N)C(=O)O; d3Pal = N[C@H](Cc1cccnc1)C(=O)O; Nicotinoyl = O=C(c1cccnc1)*; dOrn = NCCC[C@@H](N)C(=O)O; 2Furoyl = O=C(c1ccco1)*; Ava = NCCCCC(=O)O; GABA = NCCCC(=O)O; azaGly = NNC(=O)O

The target in this assay is T1, LHRH receptor (Rattus norvegicus, UniProt P30969).
T1 construct: endogenous in cells
T1 sequence (P30969 1-327): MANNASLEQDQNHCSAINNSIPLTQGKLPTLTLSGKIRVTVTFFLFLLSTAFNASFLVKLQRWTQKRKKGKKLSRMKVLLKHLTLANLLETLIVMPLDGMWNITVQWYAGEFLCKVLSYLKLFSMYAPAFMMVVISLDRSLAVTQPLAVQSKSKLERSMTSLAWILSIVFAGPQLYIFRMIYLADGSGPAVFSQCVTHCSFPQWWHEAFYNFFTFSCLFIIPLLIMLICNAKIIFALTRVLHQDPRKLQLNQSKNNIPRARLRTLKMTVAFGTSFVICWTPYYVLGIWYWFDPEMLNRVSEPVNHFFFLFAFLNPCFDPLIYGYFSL
As to the kind of experiment: in vitro LHRH antagonist potency (pA2) against the agonist leuprolide. The format is cell-based. The following applies: negative logarithm of the antagonist concentration which shifts the response curve produced by the agonist leuprolide to two-fold higher concentration. The method, boiled down: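 Functional antagonism against the agonist leuprolide. pA2 is the negative log of antagonist concentration that shifts the leuprolide response curve to twofold higher concentration.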
For the molecule `CC(=O)N[C@H](CO)C(=O)NCCCC[C@@H](NC(=O)[C@H](Cc1ccc(O)cc1)N(C)C(=O)[C@H](CO)NC(=O)[C@@H](Cc1cccnc1)NC(=O)[C@@H](Cc1ccc(Cl)cc1)NC(=O)[C@@H](Cc1ccc2ccccc2c1)NC(C)=O)C(=O)N[C@@H](CC(C)C)C(=O)N[C@@H](CCCCNC(=N)N)C(=O)N1CCC[C@H]1C(=O)N[C@H](C)C(N)=O` [Example 13, NAc-D2Nal^1 -D4ClPhe^2 -D3Pal^3 -Ser^4 -NMeTyr^5 -DLys(N-epsilon-DSer-Acetyl)^6 -Leu^7 -Harg^8 -Pro^9 -DAla^10 NH2] (Ac-[d2Nal][dPhe(4-Cl)][d3Pal]S[NMeY][dK]([dS-Ac])L[hArg]P[dA]-NH2), the Kb (usually the equilibrium dissociation constant of an antagonist, usually derived from a functional assay) was 7.94 pM. Next, `CC(=O)N[C@H](Cc1ccc2ccccc2c1)C(=O)N[C@H](Cc1ccc(Cl)cc1)C(=O)N[C@H](Cc1cccnc1)C(=O)N[C@@H](CO)C(=O)N(C)[C@@H](Cc1ccc(O)cc1)C(=O)N[C@H](CCCCNC(=O)CNC(=O)CNC(=O)c1ccco1)C(=O)N[C@@H](CC(C)C)C(=O)N[C@@H](CCCCNC(C)C)C(=O)N1CCC[C@H]1C(=O)N[C@H](C)C(N)=O` [Example 57a, NAcD2Nal^1 -D4ClPhe^2 -D3Pal^3 -Ser^4 -NMeTyr^5 -DLys(N-epsilon-Gly-Gly-furoyl)^6 -Leu^7 -Lys(Isp)^8 -Pro^9 -DAla^10 NH2] (Ac-[d2Nal][dPhe(4-Cl)][d3Pal]S[NMeY][dK]([Gly-Gly-2Furoyl])L[Lys(iPr)]P[dA]-NH2): 14.5 pM; `CC(=O)N[C@H](Cc1ccc2ccccc2c1)C(=O)N[C@H](Cc1ccc(Cl)cc1)C(=O)N[C@H](Cc1cccnc1)C(=O)N[C@@H](CO)C(=O)N(C)[C@@H](Cc1ccc(O)cc1)C(=O)N[C@H](CCCCNC(=O)CCCNC(=O)NNC(=O)c1cccnc1)C(=O)N[C@@H](CC(C)C)C(=O)N[C@@H](CCCCNC(C)C)C(=O)N1CCC[C@H]1C(=O)N[C@H](C)C(N)=O` [Example 25b, NAc-D2Nal^1 -D4ClPhe^2 -D3Pal^3 -Ser^4 -NMeTyr^5 -DLys[N-epsilon-(gamma-Aminobutyryl)-Azagly-Nicotinyl]^6 -Leu^7 -Lys(N-epsilon-Isopropyl)^8 -Pro^9 -DAla^10 NH2] (Ac-[d2Nal][dPhe(4-Cl)][d3Pal]S[NMeY][dK]([GABA-azaGly-Nicotinoyl])L[Lys(iPr)]P[dA]-NH2): 40.7 pM. For the molecule `CC(=O)N[C@H](Cc1ccc2ccccc2c1)C(=O)N[C@H](Cc1ccc(Cl)cc1)C(=O)N[C@H](Cc1cccnc1)C(=O)N[C@@H](CO)C(=O)N(C)[C@@H](Cc1ccc(O)cc1)C(=O)N[C@H](CCCCNC(=O)[C@H](NC(=O)C1=C[C@@H](O)[C@@H](O)[C@H](O)C1)[C@H](C)O)C(=O)N[C@@H](CC(C)C)C(=O)N[C@@H](CCCNC(=N)N)C(=O)N1CCC[C@H]1C(=O)N[C@H](C)C(N)=O` [Example 48c, NAc-D2Nal^1 -D4ClPhe^2 -D3Pal^3 -Ser^4 -NMeTyr^5 -DLys(N-epsilon-D-Thr-Shikimyl)^6 -Leu^7 -Arg^8 -Pro^9 -DAla^10 NH2] (Ac-[d2Nal][dPhe(4-Cl)][d3Pal]S[NMeY][dK]([dT-Shikimoyl])LRP[dA]-NH2), the Kb is 28.8 pM. Next, `CC(=O)N[C@H](Cc1ccc2ccccc2c1)C(=O)N[C@H](Cc1ccc(Cl)cc1)C(=O)N[C@H](Cc1cccnc1)C(=O)N[C@@H](CO)C(=O)N(C)[C@@H](Cc1ccc(O)cc1)C(=O)N[C@H](CCCCNC(=O)[C@@H](Cc1cccnc1)NC(=O)C1=C[C@@H](O)[C@@H](O)[C@H](O)C1)C(=O)N[C@@H](CC(C)C)C(=O)N[C@@H](CCCNC(=N)N)C(=O)N1CCC[C@H]1C(=O)N[C@H](C)C(N)=O` [Example 48i, NAc-D2Nal^1 -D4ClPhe^2 -D3Pal^3 -Ser^4 -NMeTyr^5 -DLys(N-epsilon-D-3Pal-Shikimyl)^6 -Leu^7 -Arg^8 -Pro^9 -DAla^10 NH2] (Ac-[d2Nal][dPhe(4-Cl)][d3Pal]S[NMeY][dK]([d3Pal-Shikimoyl])LRP[dA]-NH2): 36.3 pM. To `CC(=O)N[C@H](Cc1ccc2ccccc2c1)C(=O)N[C@H](Cc1ccc(Cl)cc1)C(=O)N[C@H](Cc1cccnc1)C(=O)N[C@@H](CO)C(=O)N(C)[C@@H](Cc1ccc(O)cc1)C(=O)N[C@H](CCCNC(=O)CNC(=O)C1=C[C@@H](O)[C@@H](O)[C@H](O)C1)C(=O)N[C@@H](CC(C)C)C(=O)N[C@@H](CCCNC(=N)N)C(=O)N1CCC[C@H]1C(=O)N[C@H](C)C(N)=O` [Example 49c, NAc-D2Nal^1 -D4ClPhe^2 -D3Pal^3 -Ser^4 -NMeTyr^5 -DOrn(N-epsilon-Gly-Shikimyl)^6 -Leu^7 -Arg^8 -Pro^9 -DAla^10 NH2] (Ac-[d2Nal][dPhe(4-Cl)][d3Pal]S[NMeY][dOrn]([Gly-Shikimoyl])LRP[dA]-NH2) belongs 42.7 pM; to `CC(=O)N[C@H](Cc1ccc2ccccc2c1)C(=O)N[C@H](Cc1ccc(Cl)cc1)C(=O)N[C@H](Cc1cccnc1)C(=O)N[C@@H](CO)C(=O)N(C)[C@@H](Cc1ccc(O)cc1)C(=O)N[C@H](CCCCNC(=O)CCCNC(=O)c1cccnc1)C(=O)N[C@@H](CC(C)C)C(=O)N[C@@H](CCCCNC(C)C)C(=O)N1CCC[C@H]1C(=O)N[C@H](C)C(N)=O` [Example 4b, NAc-D2Nal^1 -D4ClPhe^2 -D3Pal^3 -Ser^4 -NMeTyr^5 -DLys[N-epsilon-(gamma-Aminobutyryl)Nicotinyl]^6 -Leu^7 -Lys(N-epsilon-Isopropyl)^8 -Pro^9 -DAla^10 NH2] (Ac-[d2Nal][dPhe(4-Cl)][d3Pal]S[NMeY][dK]([GABA-Nicotinoyl])L[Lys(iPr)]P[dA]-NH2), 23.4 pM; to `CC(=O)N[C@H](Cc1ccc2ccccc2c1)C(=O)N[C@H](Cc1ccc(Cl)cc1)C(=O)N[C@H](Cc1cccnc1)C(=O)N[C@@H](CO)C(=O)N(C)[C@@H](Cc1ccc(O)cc1)C(=O)N[C@H](CCCCNC(=O)NNC(=O)c1cccs1)C(=O)N[C@@H](CC(C)C)C(=O)N[C@@H](CCCCNC(C)C)C(=O)N1CCC[C@H]1C(=O)N[C@H](C)C(N)=O` [Example 5b, NAc-D2Nal^1 -D4ClPhe^2 -D3Pal^3 -Ser^4 -NMeTyr^5 -DLys(N-epsilon-Azagly-2-Thienylcarbonyl)^6 -Leu^7 -Lys(N-epsilon-Isopropyl)^8 -Pro^9 -DAla^10 NH2] (Ac-[d2Nal][dPhe(4-Cl)][d3Pal]S[NMeY][dK]([azaGly-Thiophene2carbonyl])L[Lys(iPr)]P[dA]-NH2), 2.95 pM.

As for `CC(=O)N[C@H](Cc1ccc2ccccc2c1)C(=O)N[C@H](Cc1ccc(Cl)cc1)C(=O)N[C@H](Cc1cccnc1)C(=O)N[C@@H](CO)C(=O)N(C)[C@@H](Cc1ccc(O)cc1)C(=O)N[C@H](CCCCNC(=O)CCCCNC(=O)c1cccnc1)C(=O)N[C@@H](CC(C)C)C(=O)N[C@@H](CCCCNC(C)C)C(=O)N1CCC[C@H]1C(=O)N[C@H](C)C(N)=O` [Example 43, NAc-D2Nal^1 -D4ClPhe^2 -D3Pal^3 -Ser^4 -NMeTyr^5 -DLys(N-epsilon-5-Aminovaleryl-Nicotinyl)^6 -Leu^7 -Lys(N-epsilon-Isopropyl)^8 -Pro^9 -DAla^10 NH2] (Ac-[d2Nal][dPhe(4-Cl)][d3Pal]S[NMeY][dK]([Ava-Nicotinoyl])L[Lys(iPr)]P[dA]-NH2), the Kb was 8.51 pM.
